US11173124B2, “Oral delivery of GLP-1 peptide analogs” (MEDIMMUNE LIMITED, priority 2017, dated 2021)
Starred links: 1 amine or outer side, 2 acyl side, 3 side chain; linkers in the order of their positions; H or OH if unused. Non-standard residues stand in square brackets, D forms with d. Residues, ends and D or L forms follow the SMILES beside them. Groups on a side chain read outwards from the residue. ξ: configuration not given here. *: point of attachment. γGlu = O=C(O)[C@H](CCC(=O)[*:2])N[*:1]; Palmitoyl = CCCCCCCCCCCCCCCC(=O)*; ξαMeF = CC(N)(Cc1ccccc1)C(=O)O; Lauroyl = CCCCCCCCCCCC(=O)*; ξαMeK = CC(N)(CCCCN)C(=O)O; ξαMeS = CC(N)(CO)C(=O)O; AEEA = NCCOCCOCC(=O)O; Aib = CC(C)(N)C(=O)O

Columns and labels:
[1] = system: Gastrointestinal (GI) tract tissues; assay: Microscopic evaluation of gastrointestinal tract tissues after intraduodenal dosing (Example 4); assay type: in vivo; conditions: rat, following administration of 50 mg/kg sodium caprate
[2] = in vivo; conditions: dog, po
Description: The following materials and methods were used for quantitative measurements of GLP-1 peptide analogs in plasma (e.g., rat or dog plasma) in the Examples below. These methods used a SCIEX 6600 TripleTOF mass spectrometer coupled with a Shimadzu ultra-high performance liquid chromatography (UHPLC). The specificity of the method was ensured by the retention time, the selected mass for Single-Reaction-Monitoring (SRM) mode, and the selected fragment mass in MS/MS (MS^2) mode. […] The analytes of interest were analyzed from plasma, a complex biological matrix. Although protein precipitation using organic solvent can reduce matrix interference, significant background still persists. The high mass accuracy offered by the TripleTOF mass spectrometers further eliminated background noise, thus enhancing signal: noise (S/N) and allowing improved quantification.
The plasma extraction procedure used the following steps: • Samples, standards, and quality controls were incubated until they reached room temperature. They were then incubated at 60° C. for 2 minutes and cooled down to room temperature, vortexed, and spun down. • 70 μL of samples, standards, or quality controls were transferred into a 1 mL 96-well plate. • In each well, 420 uL of Precipitation Solution was added. The plate was sealed and shook for 10 minutes on a plate shaker at 600 rpm. • The plate was centrifuged at 18G, 2500 RFC, 20° C. for 10 minutes. • The plate was carefully removed, and the upper clear supernatant was extracted with a 200 uL multichannel pipette into a new 96-well protein lobind plate. The supernatant was extracted twice for each well, and the supernatants were combined. • The Plate was placed in TurboVap and the extracted supernatant was dried completely with heated (65° C.) Nitrogen gas at 60 Fahrenheit (Fh). • After the plate was completely dry, the plates were covered and incubated at room temperature for at least 30 minutes until the plate returned back to ambient temperature. • 150 μL of Reconstitution solution was added to each well. The plate was covered with a pierceable place seal and shaken at 600 rpm for 10 minutes. • The samples were submitted to the LC-MS/MS on the same day of Preparation
Quantification of the data obtained using the high resolution SCIEX 6600 instrument was then performed as follows: • For the quantification, extracted ion chromatograms (XIC) using 0.2 Da m/z extraction window centered on the accurate mass of each fragment ion were generated. Accurate mass was calculated from the structure of the compound. […] Concentrations of the target analyte in unknown samples were obtained by regression analysis using linear fits of peak areas vs. analyte concentration, weighted 1/(concentration). • The quality of the assay was controlled by the quality control samples. • Either Experiment 1 or Experiment 2 could be used for the quantification of the GLP-1 peptide analogs in high resolution mode.
MEDI7219 (SEQ ID NO:2) formulations were studied in the following canine study, which was designed to compare different tablet delivery systems and peptides in enterically coated tablet formulation compositions delivered orally. […]
The efficacy of sodium caprate as a permeation enhancer was also evaluated.

[3] = system: Caco-2 cells; assay: Caco-2 study, Permeability (%) of lipidated peptides (Example 3); assay type: in vitro ADME, human; conditions: 0.1 mg/mL peptide
Description: The Caco-2 cell line is a continuous cell line of heterogeneous human epithelial colorectal adenocarcinoma cells, which when cultured under specific conditions, become differentiated and polarized such that their phenotype, morphologically and functionally, resembles the enterocytes lining the small intestine. Caco-2 cells express tight junctions, microvilli, and a number of enzymes and transporters that are characteristic of such enterocytes. Caco-2 cells are most commonly used as a tight junction monolayer that provides a physical and biochemical barrier to the passage of drugs and thus serves as an in vitro model of the human small intestinal mucosa to predict the absorption of orally administered drugs. Caco-2 permeability assays were performed by Cyprotex US, LLC (MA, USA) to assess the efficacy of different permeation enhancers. Caco-2 cells were grown on Transwell filters until a transepithelial electric resistance of ˜1000 ohms/cm^2 was achieved. The cells were incubated for three hours with media containing test samples on the apical (top) side of the cell layer, and with blank media on the basolateral (lower) side of the cell layer. Media from the apical and basolateral sides was collected separately after three hours and evaluated for the amount of peptide present on each side. Table 2 gives the permeability coefficient (Papp) of the various test samples, which include the SEQ ID NO:3 GLP-1 peptide in the presence of different excipients.
A following Caco-2 study was performed to evaluate the permeability of different peptides in the presence of various permeation enhancers. Permeability (%) was calculated by dividing the cumulative amount of molecules transported with the original loading amount. Concentrations of peptides in starting sample and apical and basal solutions after incubation for pre-determined periods were analyzed by HPLC. Sodium chenodeoxycholate at 25 mg/mL effected the highest permeability of each tested peptide (Table 4).

[4] = Third rat ID infusion study, stabilized peptides vs semaglutide (Example 6); conditions: in vivo
Protocol: The third rat ID infusion study was performed to compare bioavailability of stabilized peptides MEDI7219 (SEQ ID NO:2) and SEQ ID NO:6 with that of semaglutide, H-His-Aib-[…]AEEAc-AEEAc-γ-Glu-17-carboxyheptadecanoyl)-[…]OH (SEQ ID NO:11), (Novo Nordisk), an un-stabilized GLP-1 peptide analog, that only has Aib in its sequence for protection from circulating DPP-IV peptidases, (Table 7 and FIG. 2B).

[5] = Canine tablet site of absorption study, SEQ ID NO:6 tablets in acid-resistant capsules or IntelliCap (Example 12); assay type: in vivo; conditions: dog; for Tmax / half-life / AUC(0-t) / Cmax: in vivo; for bioavailability: plasma
Protocol: A third site of absorption study was performed to evaluate the absorption sites and tablet formulations in acid-resistant capsules in canines. The tablet manufacturing process was as follows: All ingredients were passed through a US sieve #35 (0.5 mm opening), and the resultant powder was compacted using a pellet press. Compacted material was again passed through a US sieve #35 (0.5 mm opening) to form granules. […] Tablets in this study were either placed in acid-resistant capsules (Table 18, Groups 1 and 2) or in IntelliCap® (Table 18, Groups 3 and 4).

[6] = canine, Intravenous, 0.031 mg/kg, 0.031 mg/mL peptide in Tris Mannitol, pH 8.0
[7] = canine, Oral IntelliCap released in proximal colon, 0.96 mg/kg, 10 mg peptide, 100 mg Na CDC, 50 mg PG tablet
[8] = canine, Oral, 0.54 mg/kg, 5 mg peptide, 100 mg Na CDC, 50 mg PG tablet in Acid-resistant capsule
[9] = canine, Oral, 1.08 mg/kg, 10 mg peptide, 100 mg Na CDC, 50 mg PG tablet in Acid-resistant capsule

Question: For `CCCCCCCCCC(=O)[O-].[Na+]` [sodium caprate], which “Gastrointestinal (GI) tract tissues upon microscopic evaluation” value [1] is on record?
Answer: looked normal

Question: What does the source list for `CCCCCCCCCCCCCCCC(=O)N[C@@H](CCC(=O)NCCOCCOCC(=O)NCCOCCOCC(=O)NCCCC[C@H](NC(=O)[C@H](C)NC(=O)[C@@H](NC(=O)C(C)(Cc1ccccc1)NC(=O)[C@H](CCC(=O)O)NC(=O)C(C)(CCCCN)NC(=O)[C@H](C)NC(=O)[C@H](C)NC(=O)[C@H](CCC(=O)O)NC(=O)CNC(=O)[C@H](CCC(=O)O)NC(=O)[C@H](CC(C)C)NC(=O)[C@H](CCCCNC(=O)COCCOCCNC(=O)COCCOCCNC(=O)CC[C@H](NC(=O)CCCCCCCCCCCCCCC)C(=O)O)NC(=O)[C@H](CO)NC(=O)C(C)(CO)NC(=O)[C@@H](NC(=O)[C@H](CC(=O)O)NC(=O)[C@H](CO)NC(=O)[C@@H](NC(=O)C(C)(Cc1ccccc1)NC(=O)[C@H](CO)NC(=O)CNC(=O)[C@H](CCC(=O)O)NC(=O)C(C)(C)NC(=O)[C@@H](N)Cc1c[nH]cn1)[C@@H](C)O)C(C)C)[C@@H](C)CC)C(=O)N[C@H](C(=O)N[C@H](C(=O)N[C@@H](CCC(=O)O)C(=O)NCC(=O)NCC(N)=O)C(C)C)C(C)C)C(=O)O` (some centres unmarked) [SEQ ID NO: 10, Free-H-[AIB]-EGS-[αMePhe]-TSDV-[αMeSer]-SK[(PEG2)2-γE-Palmitoyl]-LEGEAA-[αMeLys]-E-[αMePhe]-IAK[(PEG2)2-γE-Palmitoyl]-VVEGG-amide] (H-H[Aib]EGS[ξαMeF]TSDV[ξαMeS]SK([AEEA-AEEA-γGlu-Palmitoyl])LEGEAA[ξαMeK]E[ξαMeF]IAK([AEEA-AEEA-γGlu-Palmitoyl])VVEGG-NH2)?
Answer: AUC [2]: 23700 ng·h/mL; PK variability [2]: 52.3%; half-life [2]: 33 h

Question: For `CCCCCCCCCCCC(=O)N[C@@H](CCC(=O)NCCOCCOCC(=O)NCCOCCOCC(=O)NCCCC[C@H](NC(=O)[C@H](C)NC(=O)[C@@H](NC(=O)[C@H](Cc1ccccc1)NC(=O)[C@H](CCC(=O)O)NC(=O)C(C)(CCCCN)NC(=O)[C@H](C)NC(=O)[C@H](C)NC(=O)[C@H](CCC(=O)O)NC(=O)CNC(=O)[C@H](CCC(=O)O)NC(=O)[C@H](CC(C)C)NC(=O)[C@H](CCCCNC(=O)COCCOCCNC(=O)COCCOCCNC(=O)CC[C@H](NC(=O)CCCCCCCCCCC)C(=O)O)NC(=O)[C@H](CO)NC(=O)C(C)(CO)NC(=O)[C@@H](NC(=O)[C@H](CC(=O)O)NC(=O)[C@H](CO)NC(=O)[C@@H](NC(=O)C(C)(Cc1ccccc1)NC(=O)[C@H](CO)NC(=O)CNC(=O)[C@H](CCC(=O)O)NC(=O)C(C)(C)NC(=O)[C@@H](N)Cc1c[nH]cn1)[C@@H](C)O)C(C)C)[C@@H](C)CC)C(=O)N[C@H](C(=O)N[C@H](C(=O)N[C@@H](CCC(=O)O)C(=O)NCC(=O)NCC(N)=O)C(C)C)C(C)C)C(=O)O` (some centres unmarked) [SEQ ID NO: 6, Free-H-[AIB]-EGS-[αMePhe]-TSDV-[αMeSer]-SK[(PEG2)2-γE-Lauroyl]-LEGEAA-[αMeLys]-EFIAK[(PEG2)2-γE-Lauroyl]-VVEGG-amide] (H-H[Aib]EGS[ξαMeF]TSDV[ξαMeS]SK([AEEA-AEEA-γGlu-Lauroyl])LEGEAA[ξαMeK]EFIAK([AEEA-AEEA-γGlu-Lauroyl])VVEGG-NH2), which “Permeability (%)” value ([3]; 5.0 mg/mL Sodium Chenodeoxycholate) is on record?
Answer: 1.21%

Question: And the “Permeability (%)” value ([3]; 25 mg/mL Sodium Chenodeoxycholate)?
Answer: 13.3%

Question: What about the F [4] of the same molecule?
Answer: significantly higher absolute bioavailability via ID route than semaglutide

Question: What about the half-life [4] of the same molecule?
Answer: 9 h

Question: What about the bioavailability ([4]; 1 mg/kg) of the same molecule?
Answer: 1.2%

Question: And the AUC ([4]; iv, 0.01 mg/kg)?
Answer: 1080 ng·h/mL

Question: And the Cmax ([4]; iv, 0.01 mg/kg)?
Answer: 211 ng/mL

Question: What about the F ([4]; iv, 0.01 mg/kg) of the same molecule?
Answer: 100%

Question: What about the half-life ([4]; iv, 0.01 mg/kg) of the same molecule?
Answer: 9.2 h

Question: And the Tmax ([5]; po, […])?
Answer: 0.857 h

Question: And the half-life ([5]; po, […])?
Answer: 6.76 h

Question: And the AUC(0-t) [5, 6]?
Answer: 147 ± 19.9 ng·h/mL

Question: And the Cmax [5, 6]?
Answer: 27.3 ng/mL

Question: What about the Tmax [5, 6] of the same molecule?
Answer: 0.444 h

Question: What about the half-life [5, 6] of the same molecule?
Answer: 7.21 h

Question: And the AUC(0-t) [5, 7]?
Answer: 1490 ng·h/mL

Question: What about the Cmax [5, 7] of the same molecule?
Answer: 210 ng/mL

Question: What about the Tmax [5, 7] of the same molecule?
Answer: 2.14 h

Question: And the half-life [5, 7]?
Answer: 5.37 h

Question: What about the AUC(0-t) [5, 8] of the same molecule?
Answer: 325 ± 467 ng·h/mL

Question: And the Cmax [5, 8]?
Answer: 47.3 ng/mL

Question: What about the Tmax [5, 8] of the same molecule?
Answer: 1.64 h

Question: What about the half-life [5, 8] of the same molecule?
Answer: 6.99 h

Question: What about the AUC(0-t) [5, 9] of the same molecule?
Answer: 1970 ng·h/mL

Question: What about the Cmax [5, 9] of the same molecule?
Answer: 279 ng/mL

Question: What about the Tmax [5, 9] of the same molecule?
Answer: 1.79 h

Question: What about the half-life [5, 9] of the same molecule?
Answer: 6.31 h

Question: And the bioavailability ([5]; po, […])?
Answer: 2.46%

Question: And the bioavailability [5, 7]?
Answer: 2.79%

Question: And the bioavailability [5, 8]?
Answer: 1.3%

Question: What about the bioavailability [5, 9] of the same molecule?
Answer: 3.63%
